In patent publication US11020409B2, “Broad antiviral therapy with membrane modifying oxysterols” (priority 2012, dated 2021):
Several values for one entry are separate records, joined by “and”; a condition that tells them apart may be missing. Equal entries are not always repeated. Where two headings read alike, the source gives them in different places.

Tests used:
VSV-GFP [1] = assay: microbe, parasite or virus in culture; type: cell-based, vesicular stomatitis virus
VSV = type: cell-based, vesicular stomatitis virus
HIV-IIIB pseudovirus = type: cell-based, human-immunodeficiency virus
NL4-3-GFP = type: cell-based, human-immunodeficiency virus
VSVΔG-Luc/G pseudovirus = type: cell-based, vesicular stomatitis virus
HIV NL4-R3A = assay: HIV infection in DKO-hu humanized mice; type: in vivo, HIV-1
[2] = tested on: RVFV (MP12 vaccine strain); type: cell-based, Rift Valley Fever Virus
[3] = tested on: Nipah virus (Bangladesh strain); type: cell-based
[4] = tested on: Russian Spring-Summer Encephalitis Virus (RSSEV); type: cell-based
VSV-G/BlaM = type: cell-based, vesicular stomatitis virus
HIV NL4-3 = type: cell-based, human-immunodeficiency virus
Ebola Zaire-GFP (EBOV) = type: cell-based, Ebola virus
adenovirus-GFP = type: cell-based
[5] = tested on: replication-competent VSV; type: cell-based, vesicular stomatitis virus
pseudotyped HIV-IIIB = type: cell-based, human-immunodeficiency virus
[6] = tested on: Rift Valley Fever Virus ZH501 (RVFV); type: cell-based
VSV-GFP [7] = type: cell-based, vesicular stomatitis virus
[8] = tested on: HIV NL4-3 encoding Vpr-BlaM (NL4-3/BlaM); type: cell-based, human-immunodeficiency virus
[9] = tested on: Nipah fusion (F) and attachment (G) proteins; type: cell-based, Nipah virus

With CC(C)CC[C@@H](O)[C@@H](C)[C@H]1CC[C@H]2[C@@H]3CC=C4C[C@@H](O)CC[C@]4(C)[C@H]3CC[C@]12C [22R-HC, 22-(R)-hydroxycholesterol, reference compound] the “antiviral effect on VSV-GFP” value (VSV-GFP [1]) was “did not confer antiviral effect”.

For CN(C)CCCN1c2ccccc2Sc2ccc(Cl)cc21 [CPZ, reference compound], the “VSV binding (VSV genomic RNA)” value (VSV) was “did not inhibit binding significantly”.

Cc1cn([C@H]2C[C@H](N=[N+]=[N-])[C@@H](CO)O2)c(=O)[nH]c1=O [AZT, reference compound] was tested, and the “inhibition of luciferase expression from single round infection” value (HIV-IIIB pseudovirus) was about 70%.

For Cc1c(O)cccc1C(=O)N[C@@H](CSc1ccccc1)[C@H](O)CN1C[C@H]2CCCC[C@H]2C[C@H]1C(=O)NC(C)(C)C [Nelfinavir, reference compound], the “inhibition of p24 expression in supernatants” value (NL4-3-GFP) was over 50%.

With C[C@H](CCCC(C)(C)O)[C@H]1CC[C@H]2[C@@H]3CC=C4C[C@@H](O)CC[C@]4(C)[C@H]3CC[C@]12C [25HC, 25-hydroxycholesterol] the “VSV-G mediated infection, addition concurrently or 1 hpi” value (VSVΔG-Luc/G pseudovirus) was “not significantly inhibited”, the “inhibition of VSVΔG-Luc expression, pre-treatment” value (VSVΔG-Luc/G pseudovirus) was “greater inhibition” and the “reduction of HIV RNA (copies/mL) in serum vs vehicle-treated mice” value (HIV NL4-R3A; 50 mg/kg i.p. 12 h prior to infection and every day, 7 dpi, P<0.0001) was over 80%. The “HIV p24 in CD4 T-cells from spleens” value (HIV NL4-R3A; 50 mg/kg i.p. daily, 14 dpi) was “significantly lower”, the “HIV-mediated CD4 T-cell depletion in peripheral blood leukocytes” value (HIV NL4-R3A; 50 mg/kg i.p. daily, CD3+ T-cell population, P<0.05) was “prevented HIV-mediated CD4 T-cell depletion” and the “HIV-mediated CD4 T-cell depletion in the spleen” value (HIV NL4-R3A; 50 mg/kg i.p. daily, P=0.06) was “less significant”. The “replication of RVFV (MP12), dose dependence” value [2] was “dose-dependent manner”, the “LDH in supernatants of cells” value (HEK293T) was “did not increase LDH” and the LDH level (HEK293T) was “increased”. The “replication of Nipah, dose dependence” value [3] was “dose-dependent manner”, the “replication of live Nipah (Bangladesh)” value [3] was “inhibited replication” and the “replication of live RSSEV” value [4] was “inhibited replication”. For the same molecule, the VSV-G/BlaM entry (VSV-G/BlaM) was “dose-dependent inhibition”, the “inhibition of p24 expression compared to vehicle” value (HIV NL4-3) was about 80% and the “replication of live Ebola (EBOV-Zaire)” value (Ebola Zaire-GFP (EBOV)) was “inhibited replication”. For the same molecule, the “adenovirus coexpressing GFP measured by FACS” value (adenovirus-GFP) was “not affected”, the “reduction in the amount of VSV produced (viral genome copies by qRT-PCR)” value [5] was over 80% and the “infectious titer of viruses from treated cells normalized for viral gRNA” value ([5]; 2.5 uM) was “equivalent plaque forming units”. The IC50 (VSV-GFP [1]; Vesicular stomatitis virus, HEK-293T, read-out: IC50 of inhibition of VSV-GFP expression by FACs) was about 1000 nM, the “inhibition of lateRT expression” value (pseudotyped HIV-IIIB) was > 99% and ~70% and the “GFP expression from NL4-3-GFP (HIV transcription and translation)” value (NL4-3-GFP) was “did not suppress GFP expression”. The “HIV p24 expression in supernatants of transfected cells (budding)” value (NL4-3-GFP) was “did not affect”, the “replication of live RVFV” value [6] was “inhibited replication” and the VSV replication (VSV-GFP [7]) was “reduced VSV replication”. The “VSV binding (VSV genomic RNA)” value (VSV) was “did not inhibit binding significantly”, the “decrease in NL4-3/Bla blue-green ratio at endpoint” value [8] was about 60% and the “reduction in cells expressing cleaved CCF2-AM by FACS” value [8] was over 85%. For the same molecule, the syncytia formation [9] was “less syncytia formation”, the “reduction of fusion (nuclei per syncytia) relative to ethanol control” value ([9]; 2 uM) was about 50% and the “reduction of fusion (nuclei per syncytia) relative to ethanol control” value ([9]; 10 uM) was about 60%. For the same molecule, the “inhibition of luciferase expression from single round infection” value (HIV-IIIB pseudovirus) was over 50%.

For CC(C)CC[C@H](O)[C@@H](C)[C@H]1CC[C@H]2[C@@H]3CC=C4C[C@@H](O)CC[C@]4(C)[C@H]3CC[C@]12C [22S-HC, 22-(S)-hydroxycholesterol, reference compound], the “effect on HIV p24 expression” value (HIV NL4-3) was “no effect”.

In the case of c1cc(CN2CCCNCCNCCCNCC2)ccc1CN1CCCNCCNCCCNCC1 [AMD3100, reference compound], the NL4-3/Bla entry [8] is reported as “abrogated”.
